Source: US20080234262A1 (Wyeth, priority 2007, published 2008)

Legend:
PI3K = PI3K (Homo sapiens, UniProt P42336); assay: Fluorescence polarization assay for PI3K; format: biochemical; conditions: PI3Kα; read-out: PI3Kα IC50;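 further: PI3K kinase reaction on PIP2 with ATP, 30-60 min, product sensed by GST-GRP with red probe in fluorescence polarization (mP), controls without enzyme and at zero time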
prostate line LNCap = assay: In vitro cell culture growth assay (MTS), LNCap; format: cell-based, human; conditions: LNCap cells, three days after drug treatment
breast line MDA468 = assay: In vitro cell culture growth assay (MTS), MDA468; format: cell-based, human; conditions: MDA468 cells, three days after drug treatment
In short: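 Cells were plated and, one day later, exposed to inhibitors for three days; viable cell density was then measured by metabolic conversion of MTS dye, read as absorbance at 490 nm. Growth is expressed as percent of vehicle-treated control cells on the same plate.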

Sequence of PI3K (P42336 whole entry): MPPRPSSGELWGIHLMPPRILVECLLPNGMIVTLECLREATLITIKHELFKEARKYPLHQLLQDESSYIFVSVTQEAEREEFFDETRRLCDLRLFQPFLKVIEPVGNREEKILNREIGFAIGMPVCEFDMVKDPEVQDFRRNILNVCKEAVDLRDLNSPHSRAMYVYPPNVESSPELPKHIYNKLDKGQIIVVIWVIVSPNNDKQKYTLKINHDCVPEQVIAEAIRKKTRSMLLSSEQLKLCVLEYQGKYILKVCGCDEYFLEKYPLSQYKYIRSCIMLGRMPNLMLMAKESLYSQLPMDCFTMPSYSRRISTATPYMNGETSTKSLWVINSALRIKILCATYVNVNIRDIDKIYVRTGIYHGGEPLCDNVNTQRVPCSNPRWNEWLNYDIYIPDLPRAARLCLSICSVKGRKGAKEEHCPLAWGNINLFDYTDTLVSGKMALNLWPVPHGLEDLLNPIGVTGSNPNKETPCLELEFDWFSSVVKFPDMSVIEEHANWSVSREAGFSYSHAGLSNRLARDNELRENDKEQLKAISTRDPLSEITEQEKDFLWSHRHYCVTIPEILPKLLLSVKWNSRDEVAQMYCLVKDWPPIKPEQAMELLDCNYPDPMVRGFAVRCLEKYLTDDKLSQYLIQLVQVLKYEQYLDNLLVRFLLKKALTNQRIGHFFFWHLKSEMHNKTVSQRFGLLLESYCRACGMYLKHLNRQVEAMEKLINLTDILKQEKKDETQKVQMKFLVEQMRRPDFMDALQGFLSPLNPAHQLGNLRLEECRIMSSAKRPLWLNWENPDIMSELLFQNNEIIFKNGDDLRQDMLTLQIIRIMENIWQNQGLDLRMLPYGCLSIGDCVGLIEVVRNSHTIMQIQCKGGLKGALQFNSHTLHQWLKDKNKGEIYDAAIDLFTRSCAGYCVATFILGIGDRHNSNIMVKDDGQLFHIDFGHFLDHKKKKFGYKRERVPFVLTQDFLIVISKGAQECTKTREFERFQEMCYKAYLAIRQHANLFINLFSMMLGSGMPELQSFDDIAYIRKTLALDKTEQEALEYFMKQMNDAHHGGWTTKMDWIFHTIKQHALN
Sequence of PI3K (P27986 whole entry partner): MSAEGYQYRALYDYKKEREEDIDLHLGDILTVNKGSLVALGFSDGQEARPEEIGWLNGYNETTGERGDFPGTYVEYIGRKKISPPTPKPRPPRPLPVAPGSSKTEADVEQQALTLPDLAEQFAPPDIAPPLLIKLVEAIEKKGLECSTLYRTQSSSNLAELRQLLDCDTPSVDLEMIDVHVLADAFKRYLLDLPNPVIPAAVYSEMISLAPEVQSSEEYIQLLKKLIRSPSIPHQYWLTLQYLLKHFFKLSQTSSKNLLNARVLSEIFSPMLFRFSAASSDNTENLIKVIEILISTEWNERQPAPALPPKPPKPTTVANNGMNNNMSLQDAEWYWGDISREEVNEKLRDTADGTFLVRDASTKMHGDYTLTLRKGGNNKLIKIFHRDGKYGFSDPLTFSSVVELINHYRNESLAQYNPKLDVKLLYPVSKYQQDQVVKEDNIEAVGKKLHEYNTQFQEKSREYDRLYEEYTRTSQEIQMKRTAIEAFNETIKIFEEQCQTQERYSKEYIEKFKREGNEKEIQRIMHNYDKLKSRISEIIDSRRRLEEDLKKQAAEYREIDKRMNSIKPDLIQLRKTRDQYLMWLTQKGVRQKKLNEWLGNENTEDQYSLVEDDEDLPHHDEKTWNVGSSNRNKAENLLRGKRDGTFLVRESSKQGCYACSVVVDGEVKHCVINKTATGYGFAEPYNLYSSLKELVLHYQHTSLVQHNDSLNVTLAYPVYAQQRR

Compound	IC50 (PI3K)	IC50 (prostate line LNCap)	IC50 (breast line MDA468; Homo sapiens, 72 h)	IC50 (breast line MDA468)
CCNC(=O)Nc1ccc(-c2nc(N3CCOCC3)c3cnn(C4CCN(C(=O)c5ccccc5)CC4)c3n2)cc1 [Compound 626, 1-{4-[1-(1-benzoylpiperidin-4-yl)-4-morpholin-4-yl-1H-pyrazolo[3,4-d]pyrimidin-6-yl]phenyl}-3-ethylurea]	355 nM	< 27 nM	38 nM	–
NC(=O)Nc1ccc(-c2nc(N3CCOCC3)c3cnn(C4CCN(C(=O)c5ccccc5)CC4)c3n2)cc1 [Compound 627, 1-{4-[1-(1-benzoylpiperidin-4-yl)-4-morpholin-4-yl-1H-pyrazolo[3,4-d]pyrimidin-6-yl]phenyl}urea]	84 nM	170 nM	–	160 nM
O=C(Nc1ccncc1)Nc1ccc(-c2nc(N3CCOCC3)c3cnn(C4CCN(C(=O)c5ccccc5)CC4)c3n2)cc1 [Compound 629, 1-{4-[1-(1-benzoylpiperidin-4-yl)-4-morpholin-4-yl-1H-pyrazolo[3,4-d]pyrimidin-6-yl]phenyl}-3-pyridin-4-ylurea]	19 nM	42 nM	–	70 nM
CNC(=O)Nc1ccc(-c2nc(N3CCOCC3)c3cnn(C4CCN(Cc5ccc(Cl)nc5)CC4)c3n2)cc1 [Compound 633, 1-[4-(1-{1-[(6-chloropyridin-3-yl)methyl]piperidin-4-yl}-4-morpholin-4-yl-1H-pyrazolo[3,4-d]pyrimidin-6-yl)phenyl]-3-methylurea]	47 nM	< 27 nM	–	48 nM
CNC(=O)Nc1ccc(-c2nc(N3CCOCC3)c3cnn(C4CCN(Cc5cccnc5Cl)CC4)c3n2)cc1 [Compound 635, 1-[4-(1-{1-[(2-chloropyridin-3-yl)methyl]piperidin-4-yl}-4-morpholin-4-yl-1H-pyrazolo[3,4-d]pyrimidin-6-yl)phenyl]-3-methylurea]	90 nM	45 nM	–	110 nM
CNC(=O)Nc1ccc(-c2nc(N3CCOCC3)c3cnn(C4CCN(Cc5cnccc5OC)CC4)c3n2)cc1 [Compound 636, 1-[4-(1-{1-[(4-methoxypyridin-3-yl)methyl]piperidin-4-yl}-4-morpholin-4-yl-1H-pyrazolo[3,4-d]pyrimidin-6-yl)phenyl]-3-methylurea]	82 nM	70 nM	–	220 nM
CNC(=O)Nc1ccc(-c2nc(N3CCOCC3)c3cnn(C4CCN(Cc5cncc(F)c5)CC4)c3n2)cc1 [Compound 637, 1-[4-(1-{1-[(5-fluoropyridin-3-yl)methyl]piperidin-4-yl}-4-morpholin-4-yl-1H-pyrazolo[3,4-d]pyrimidin-6-yl)phenyl]-3-methylurea]	153 nM	110 nM	–	550 nM
CNC(=O)Nc1ccc(-c2nc(N3CCOCC3)c3cnn(C4CCN(Cc5cncc(Br)c5)CC4)c3n2)cc1 [Compound 638, 1-[4-(1-{1-[(5-bromopyridin-3-yl)methyl]piperidin-4-yl}-4-morpholin-4-yl-1H-pyrazolo[3,4-d]pyrimidin-6-yl)phenyl]-3-methylurea]	72 nM	95 nM	–	560 nM
O=C(Nc1ccc(-c2nc(N3CCOCC3)c3cnn(C4CCN(Cc5cccnc5)CC4)c3n2)cc1)Nc1cccs1 [Compound 648, 1-(4-{4-morpholin-4-yl-1-[1-(pyridin-3-ylmethyl)piperidin-4-yl]-1H-pyrazolo[3,4-d]pyrimidin-6-yl}phenyl)-3-(2-thienyl)urea]	8 nM	< 27 nM	–	60 nM
O=C(Nc1ccc(-c2nc(N3CCOCC3)c3cnn(C4CCN(Cc5cccnc5)CC4)c3n2)cc1)NC1CC1 [Compound 649, 1-cyclopropyl-3-(4-{4-morpholin-4-yl-1-[1-(pyridin-3-ylmethyl)piperidin-4-yl]-1H-pyrazolo[3,4-d]pyrimidin-6-yl}phenyl)urea]	438 nM	< 27 nM	–	85 nM
COC(=NC#N)Nc1ccc(-c2nc(N3CCOCC3)c3cnn(C4CCN(Cc5cccnc5)CC4)c3n2)cc1 [Compound 654, methyl N′-cyano-N-(4-{4-morpholin-4-yl-1-[1-(pyridin-3-ylmethyl)piperidin-4-yl]-1H-pyrazolo[3,4-d]pyrimidin-6-yl}phenyl)imidocarbamate]	592 nM	2200 nM	–	1300 nM
O=C(Nc1ccc(-c2nc(N3CCOCC3)c3cnn(C4CCN(C(=O)c5cccnc5)CC4)c3n2)cc1)Nc1cccs1 [Compound 657, 1-(4-{4-morpholin-4-yl-1-[1-(pyridin-3-ylcarbonyl)piperidin-4-yl]-1H-pyrazolo[3,4-d]pyrimidin-6-yl}phenyl)-3-(2-thienyl)urea]	14 nM	35 nM	40 nM	–
O=C(Nc1ccc(-c2nc(N3CCOCC3)c3cnn(C4CCN(C(=O)c5cccnc5)CC4)c3n2)cc1)Nc1ccsc1 [Compound 658, 1-(4-{4-morpholin-4-yl-1-[1-(pyridin-3-ylcarbonyl)piperidin-4-yl]-1H-pyrazolo[3,4-d]pyrimidin-6-yl}phenyl)-3-(3-thienyl)urea]	18 nM	40 nM	–	75 nM
CNC(=O)Nc1ccc(-c2nc(N3CCOCC3)c3cnn(C4CCN(C(=O)c5ccc(F)nc5)CC4)c3n2)cc1 [Compound 665, 1-[4-(1-{1-[(6-fluoropyridin-3-yl)carbonyl]piperidin-4-yl}-4-morpholin-4-yl-1H-pyrazolo[3,4-d]pyrimidin-6-yl)phenyl]-3-methylurea]	100 nM	250 nM	–	270 nM
CNC(=O)Nc1ccc(-c2nc(N3CCOCC3)c3cnn(C4CCN(C(=O)c5cccc(C(C)=O)c5)CC4)c3n2)cc1 [Compound 667, 1-(4-{1-[1-(3-acetylbenzoyl)piperidin-4-yl]-4-morpholin-4-yl-1H-pyrazolo[3,4-d]pyrimidin-6-yl}phenyl)-3-methylurea]	83 nM	110 nM	–	150 nM
CNC(=O)Nc1ccc(-c2nc(N3CCOCC3)c3cnn(C4CCN(C(=O)c5ccc(Cl)nc5)CC4)c3n2)cc1 [Compound 668, 1-[4-(1-{1-[(6-chloropyridin-3-yl)carbonyl]piperidin-4-yl}-4-morpholin-4-yl-1H-pyrazolo[3,4-d]pyrimidin-6-yl)phenyl]-3-methylurea]	84 nM	150 nM	–	410 nM

More lines, in order of falling IC50 (PI3K), values ahead:

IC50 (PI3K)	IC50 (prostate line LNCap)	Compound	IC50 (breast line MDA468; Homo sapiens, 72 h)	IC50 (breast line MDA468)
454 nM	< 27 nM	O=C(NCCF)Nc1ccc(-c2nc(N3CCOCC3)c3cnn(C4CCN(C(=O)c5ccccc5)CC4)c3n2)cc1 [Compound 625, 1-{4-[1-(1-benzoylpiperidin-4-yl)-4-morpholin-4-yl-1H-pyrazolo[3,4-d]pyrimidin-6-yl]phenyl}-3-(2-fluoroethyl)urea]	27 nM	–
230 nM	320 nM	CNC(=O)Nc1ccc(-c2nc(N3CCOCC3)c3cnn(C4CCN(C(=O)c5cnccc5C)CC4)c3n2)cc1 [Compound 663, 1-methyl-3-[4-(1-{1-[(4-methylpyridin-3-yl)carbonyl]piperidin-4-yl}-4-morpholin-4-yl-1H-pyrazolo[3,4-d]pyrimidin-6-yl)phenyl]urea]	–	430 nM
124 nM	120 nM	CNC(=O)Nc1ccc(-c2nc(N3CCOCC3)c3cnn(C4CCN(C(=O)c5ccccn5)CC4)c3n2)cc1 [Compound 662, 1-methyl-3-(4-{4-morpholin-4-yl-1-[1-(pyridin-2-ylcarbonyl)piperidin-4-yl]-1H-pyrazolo[3,4-d]pyrimidin-6-yl}phenyl)urea]	–	220 nM
118 nM	330 nM	CNC(=O)Nc1ccc(-c2nc(N3CCOCC3)c3cnn(C4CCN(C(=O)c5ccc(C)nc5)CC4)c3n2)cc1 [Compound 664, 1-methyl-3-[4-(1-{1-[(6-methylpyridin-3-yl)carbonyl]piperidin-4-yl}-4-morpholin-4-yl-1H-pyrazolo[3,4-d]pyrimidin-6-yl)phenyl]urea]	–	270 nM
108 nM	35 nM	CNC(=O)Nc1ccc(-c2nc(N3CCOCC3)c3cnn(C4CCN(Cc5ccc(F)nc5)CC4)c3n2)cc1 [Compound 632, 1-[4-(1-{1-[(6-fluoropyridin-3-yl)methyl]piperidin-4-yl}-4-morpholin-4-yl-1H-pyrazolo[3,4-d]pyrimidin-6-yl)phenyl]-3-methylurea]	–	120 nM
36 nM	60 nM	CNC(=O)Nc1ccc(-c2nc(N3CCOCC3)c3cnn(C4CCN(Cc5ccccc5O)CC4)c3n2)cc1 [Compound 644, 1-(4-{1-[1-(2-hydroxybenzyl)piperidin-4-yl]-4-morpholin-4-yl-1H-pyrazolo[3,4-d]pyrimidin-6-yl}phenyl)-3-methylurea]	–	320 nM
35 nM	38 nM	CNC(=O)Nc1ccc(-c2nc(N3CCOCC3)c3cnn(C4CCN(Cc5ccccc5Cl)CC4)c3n2)cc1 [Compound 641, 1-(4-{1-[1-(2-chlorobenzyl)piperidin-4-yl]-4-morpholin-4-yl-1H-pyrazolo[3,4-d]pyrimidin-6-yl}phenyl)-3-methylurea]	–	180 nM
30 nM	27 nM	CNC(=O)Nc1ccc(-c2nc(N3CCOCC3)c3cnn(C4CCN(Cc5ccc(Br)nc5)CC4)c3n2)cc1 [Compound 634, 1-[4-(1-{1-[(6-bromopyridin-3-yl)methyl]piperidin-4-yl}-4-morpholin-4-yl-1H-pyrazolo[3,4-d]pyrimidin-6-yl)phenyl]-3-methylurea]	–	80 nM
28 nM	140 nM	CNC(=O)Nc1ccc(-c2nc(N3CCOCC3)c3cnn(C4CCN(Cc5cccc(O)c5)CC4)c3n2)cc1 [Compound 642, 1-(4-{1-[1-(3-hydroxybenzyl)piperidin-4-yl]-4-morpholin-4-yl-1H-pyrazolo[3,4-d]pyrimidin-6-yl}phenyl)-3-methylurea]	–	420 nM
